Assay results reported in patent publication US20260364089A1, “PYRIDOPYRIMIDINE KRAS INHIBITORS” (Treeline Biosciences, Inc., priority 2022, published 2026).

Legend:
Format in all cases: biochemical
KRas G12R = biological target: T1, KRas G12R (Homo sapiens, UniProt P01116, G12R); assay: SOS1-Catalyzed Nucleotide Exchange Assay, KRas G12R; settings: 10 nM KRas G12R (1-169, GDP-loaded), 200 nM SOS1
T1 construct: KRas G12R (1-169) loaded with GDP nucleotide; biotin (biotinylated)
Method: (§1) KRas G12R and WT: Compounds were pre-dispensed using acoustic transfer technology into a black, low volume 384-well assay plate. A 10-point dose response of each compound was performed with a 30 μM top dose. Biotinylated KRas WT(1-169) or KRas G12R (1-169) loaded with GDP nucleotide was mixed with Streptavidin-Tb cryptate (Cisbio) in assay buffer (20 mM HEPES pH 7.4, 150 mM NaCl, 2 mM MgCl2, and 0.005% CA680) to produce a 1.5× solution. 10 μL of the 1.5× KRas-cryptate solution was added to wells of a black, low-volume 384-well assay plate. The KRas/cryptate-compound mixture was incubated for 1 hour at room temperature. A 3× solution of SOS1 (564-1049) and EDA-GTP-DY-647P1 (Jena Bioscience) was prepared in assay buffer. 5 μL of the SOS1-labeled GTP solution was added to the wells to initiate the nucleotide exchange reaction. The final concentration of KRas G12R and SOS1 were 10 nM and 200 nM, respectively. The final concentration of KRas WT and SOS1 were 20 nM and 10 nM, respectively. The plate was allowed to incubate for 1 hr, then time resolved fluorescence was read on a PHERAstar plate reader equipped with a filter module with excitation=337 nm and emission 1=620 nm, emission 2=665 nm. The TR-FRET signal was calculated as the ratio of fluorescence intensity [emission 665 nm]/[emission 620 nm]. IC50 values were calculated using a four-parameter, variable response sigmoidal dose response curve fit in PerkinElmer Signals VitroVivo.

KRas G12V = biological target: T2, KRas G12V (Homo sapiens, UniProt P01116, G12V); assay: SOS1-Catalyzed Nucleotide Exchange Assay, KRas G12V (Method 1); settings: 5 nM KRas G12V (aa 1-169, GDP-loaded), 50 nM SOS1
T2 construct: Biotinylated KRas G12V (aa 1-169) loaded with GDP nucleotide; biotin (biotinylated)
Method: KRas G12V [Method 1]: Biotinylated KRas G12V (aa 1-169) loaded with GDP nucleotide and Streptavidin-Europium (SA-EU, Columbia Biosciences) were preincubated in assay buffer (20 mM HEPES pH 7.4, 150 mM NaCl, 5 mM MgCl2, 1 mM DTT, 0.01% Brij-35, 0.3 mg/mL BSA) on ice for 30 min. Separately SOS1 (aa 546-1049) and EDA-GTP-DY647P1 (Jena Bioscience) were preincubated in assay buffer on ice for 30 min. After pre-incubation, 5 μL buffer and 5 μL of KRas G12V-SA-Eu were added to each well of a white, low-volume, non-binding 384-well plate. Compounds were then added to respective wells with a Tecan D300e liquid dispenser. A 10-point concentration response curve for each compound was prepared with appropriate top concentration (1 μM, 10 μM, or 300 μM) and incubated for 30 min. 5 μL of SOS1-EDA-GTP-D467P1 was added to start the nucleotide exchange reaction. Final concentration in the assay were 5 nM KRas G12V, 50 nM SOS1 (aa 564-1049). The reaction was allowed to proceed for 60-90 minutes after which the plate was read on a PHERAstar FSX plate reader (exc: 337 nm, em 1: 665 nm, em 2: 620 nm). After normalization of the raw data (ratio of Signal665nm/Signal620nm) the data was fit to a four-parameter logistic curve in GraphPad Prism (v9.4.1).

KRas WT = biological target: T3, KRas WT (Homo sapiens, UniProt P01116); assay: SOS1-Catalyzed Nucleotide Exchange Assay, KRas WT; settings: 20 nM KRas WT (1-169, GDP-loaded), 10 nM SOS1
T3 construct: Biotinylated KRas WT(1-169); biotin (biotinylated)
Method: as §1

T2 sequence (P01116 1-169 G12V): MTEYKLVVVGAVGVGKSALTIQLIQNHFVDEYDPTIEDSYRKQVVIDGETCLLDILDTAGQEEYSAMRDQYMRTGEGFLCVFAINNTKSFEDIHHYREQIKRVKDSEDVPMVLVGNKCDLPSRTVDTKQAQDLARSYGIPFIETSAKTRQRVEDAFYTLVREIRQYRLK
T1 sequence (P01116 1-169 G12R): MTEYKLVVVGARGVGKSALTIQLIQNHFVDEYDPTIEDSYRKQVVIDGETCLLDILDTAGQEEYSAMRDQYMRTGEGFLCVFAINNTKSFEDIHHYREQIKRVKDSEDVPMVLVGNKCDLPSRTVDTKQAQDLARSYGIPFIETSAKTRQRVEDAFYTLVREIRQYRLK
T3 sequence (P01116 1-169): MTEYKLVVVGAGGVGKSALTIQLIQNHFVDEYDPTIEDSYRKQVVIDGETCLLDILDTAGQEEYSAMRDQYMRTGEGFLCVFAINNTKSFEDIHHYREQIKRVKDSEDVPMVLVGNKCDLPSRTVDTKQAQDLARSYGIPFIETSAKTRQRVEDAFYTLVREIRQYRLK

For `Oc1cc(Cl)c2c(c1)-c1ncc3c(nc(OC[C@@]45CCCN4C[C@H](F)C5)nc3c1F)N1CCCC(O)(CCCCCCC2)C1` (stereo partly drawn) [Compound 152a, 3^3-chloro-2^8-fluoro-2^2-(((2R,7aS)-2-fluorotetrahydro-1H-pyrrolizin-7a(5H)-yl)methoxy)-2(4,7)-pyrido[4,3-d]pyrimidina-1(1,3)-piperidina-3(1,2)-benzenacyclodecaphane-1^3,3^5-diol], the IC50 (KRas G12R) was no more than 100 nM, the IC50 (KRas G12V) was no more than 100 nM and the IC50 (KRas WT) was no more than 100 nM.
`Oc1cc(Cl)c2c(c1)-c1ncc3c(nc(OC[C@@]45CCCN4C[C@H](F)C5)nc3c1F)N1CCCC(Cc3noc(n3)CCCCCC2)C1` (stereo partly drawn) [Compound 153a, (Z)-1^3-chloro-2^8-fluoro-2^2-(((2R,7aS)-2-fluorotetrahydro-1H-pyrrolizin-7a(5H)-yl)methoxy)-5(3,5)-oxadiazola-2(7,4)-pyrido[4,3-d]pyrimidina-3(1,3)-piperidina-1(1,2)-benzenacycloundecaphan-1^5-ol] gave an IC50 (KRas G12R) of 100 to 1000 nM, an IC50 (KRas G12V) of 100 to 1000 nM and an IC50 (KRas WT) of 100 to 1000 nM.
